Entries after “also recorded” stand apart in the source; their conditions may differ.
Legend:
Assay type in all cases: cell-based
[1] = tested on: murine triple negative breast cancer cell line EMT6; experiment: Death receptor 5 antibody (MD5-1) induced apoptosis in EMT6 cells in combination with SIK3 inhibitor; settings: 0.8 ng/ml murine death receptor 5 targeting antibody (clone MD5-1) plus E9 vs DMSO control, caspase 3/7 at 8 hours, annexin V and cytotox red at 24 hours, FIG. 4
Protocol: (§1) The experiments were done briefly as follows: murine colorectal carcinoma cell line MC38, murine triple negative breast cancer cell line EMT6 and human melanoma tumor cell line A375 were treated with 1 ng/ml TNF, 0.8 ng/ml murine death receptor 5 targeting antibody (clone MD5-1) and 10 ng/ml complexed TRAIL, respectively, or with the appropriate negative controls, in combination with the SIK3 inhibitor E9 and an associated DMSO control. The onset of tumor cell death was monitored 8 hours after treatment initiation by analyzing cleavage of effector caspases 3/7 using Caspase-Glo® assay from Promega according to manufacturer's protocol. In addition, 24 hours after treatment initiation, the increase in extracellular phosphatidylserine expression was measured by annexin V expression level and cell membrane disruption by cytotox red staining, both according to manufacturer's protocol.

[2] = tested on: human melanoma tumor cell line A375; experiment: Complexed TRAIL induced apoptosis in A375 cells in combination with SIK3 inhibitor; settings: 10 ng/ml complexed TRAIL plus E9 vs DMSO control, caspase 3/7 at 8 hours, annexin V and cytotox red at 24 hours, FIG. 5
Protocol: as §1

[3] = tested on: murine colorectal carcinoma cell line MC38; experiment: TNF induced apoptosis in MC38 cells in combination with SIK3 inhibitor; settings: 1 ng/ml TNF plus E9 vs DMSO control, caspase 3/7 at 8 hours, annexin V and cytotox red at 24 hours, FIG. 3
Protocol: as §1

Cc1nc(Nc2ncc(C(=O)Nc3c(CF)csc3Cl)s2)cc(N2CCN(C)CC2)n1 [Compound E9, N-(2-chloro-4-(fluoromethyl)thiophen-3-yl)-2-((2-methyl-6-(4-methylpiperazin-1-yl)pyrimidin-4-yl)amino)thiazole-5-carboxamide]
enhancement of death receptor induced apoptosis (caspase-3/7 cleavage, annexin V, cytotox red) [1]: potent enhancement of death receptor induced apoptosis; also recorded: enhanced death receptor mediated apoptosis
enhancement of death receptor induced apoptosis (caspase-3/7 cleavage, annexin V, cytotox red) [2]: enhanced death receptor mediated apoptosis; also recorded: potent enhancement of death receptor induced apoptosis
enhancement of death receptor induced apoptosis (caspase-3/7 cleavage, annexin V, cytotox red) [3]: potent enhancement of death receptor induced apoptosis; also recorded: enhanced death receptor mediated apoptosis

From patent US20250249000A1, “SIK3 INHIBITORS FOR TREATING DISEASES RESISTANT TO DEATH RECEPTOR SIGNALLING” (IOMX THERAPEUTICS AG, priority 2022, published 2025)
